Laboratory results reported in patent US12612409B2, “Pyrrolopyrimidines as CFTR potentiators” (Cystic Fibrosis Foundation, priority 2016, dated 2026).

Key:
[1] = target: T1, CFTR in F508del/F508del primary CF hBE cells (Homo sapiens, UniProt P13569, DEL508-508); assay: Ussing chamber electrophysiology assay of CFTR potentiation in F508del/F508del CF bronchial epithelial cells (27° C.); assay type: cell-based
T1 construct: Primary cystic fibrosis human bronchial epithelial (CF hBE) cells were expanded and cultured; endogenous in cells; host or cells: primary CF human bronchial epithelial cells, genotype F508del/F508del
T1 sequence (P13569 with tags, fused parts or gaps DEL508-508): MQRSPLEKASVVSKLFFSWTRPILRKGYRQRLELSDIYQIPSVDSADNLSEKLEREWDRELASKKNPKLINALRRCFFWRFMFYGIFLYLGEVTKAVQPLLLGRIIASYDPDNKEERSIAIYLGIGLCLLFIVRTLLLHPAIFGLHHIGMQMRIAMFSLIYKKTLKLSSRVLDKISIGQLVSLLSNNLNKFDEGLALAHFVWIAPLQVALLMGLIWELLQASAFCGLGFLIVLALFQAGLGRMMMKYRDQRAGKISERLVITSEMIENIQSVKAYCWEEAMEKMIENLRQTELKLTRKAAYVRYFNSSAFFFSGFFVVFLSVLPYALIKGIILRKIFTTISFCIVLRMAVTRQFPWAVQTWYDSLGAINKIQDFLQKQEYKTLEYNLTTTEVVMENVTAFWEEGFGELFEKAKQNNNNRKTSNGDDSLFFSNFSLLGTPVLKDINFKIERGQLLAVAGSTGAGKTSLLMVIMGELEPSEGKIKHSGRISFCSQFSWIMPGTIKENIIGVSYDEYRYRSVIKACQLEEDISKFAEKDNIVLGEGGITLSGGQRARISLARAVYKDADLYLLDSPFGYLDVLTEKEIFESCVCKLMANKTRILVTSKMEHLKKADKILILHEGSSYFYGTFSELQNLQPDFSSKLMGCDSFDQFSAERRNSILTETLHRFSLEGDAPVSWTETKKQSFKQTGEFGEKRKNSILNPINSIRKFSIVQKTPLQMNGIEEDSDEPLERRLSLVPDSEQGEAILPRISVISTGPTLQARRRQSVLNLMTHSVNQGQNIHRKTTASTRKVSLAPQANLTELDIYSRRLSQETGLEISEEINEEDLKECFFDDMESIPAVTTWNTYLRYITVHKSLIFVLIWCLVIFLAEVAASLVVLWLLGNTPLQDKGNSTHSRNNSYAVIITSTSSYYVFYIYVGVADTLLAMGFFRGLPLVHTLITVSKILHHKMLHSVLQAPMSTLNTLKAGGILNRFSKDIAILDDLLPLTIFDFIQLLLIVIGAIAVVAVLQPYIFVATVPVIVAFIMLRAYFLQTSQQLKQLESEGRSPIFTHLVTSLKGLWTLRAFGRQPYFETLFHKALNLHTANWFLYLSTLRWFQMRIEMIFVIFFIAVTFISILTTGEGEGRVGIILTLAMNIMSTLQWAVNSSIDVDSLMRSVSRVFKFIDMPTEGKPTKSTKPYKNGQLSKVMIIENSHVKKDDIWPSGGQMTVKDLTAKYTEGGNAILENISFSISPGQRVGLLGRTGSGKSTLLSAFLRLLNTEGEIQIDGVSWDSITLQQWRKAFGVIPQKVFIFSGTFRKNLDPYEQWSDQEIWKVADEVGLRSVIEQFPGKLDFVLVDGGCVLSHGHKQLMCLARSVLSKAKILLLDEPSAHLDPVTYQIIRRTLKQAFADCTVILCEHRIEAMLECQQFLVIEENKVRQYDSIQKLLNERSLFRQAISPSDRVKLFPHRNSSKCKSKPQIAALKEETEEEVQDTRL
Outline: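 Short-circuit current was recorded under zero-voltage clamp across primary CF bronchial epithelia cultured >30 days at air/liquid interface, bathed apically and basolaterally in HEPES-buffered saline. Sequential additions: amiloride (30 uM), forskolin (10 uM), compound at 4 increasing levels, CFTRinh-172 (20 uM). Responses normalised between DMSO (0%) and maximal positive-control potentiator (100%).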

[2] = target: T2, recombinant F508del V470 CFTR in Fischer rat thyroid (FRT) cells (Homo sapiens, UniProt P13569, DEL508-508); assay: FRT ion flux assay of F508del CFTR potentiation; assay type: cell-based; conditions: FRT cells expressing F508del V470 CFTR, forskolin 20 uM, 27° C. pre-incubation
T2 construct: expressed in transfected cells
T2 sequence (P13569 with tags, fused parts or gaps DEL508-508): as above
Outline: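 Potentiation read as YFP quench ~21 s after iodide buffer addition, as second/initial fluorescence ratio normalised between DMSO (0%) and reference potentiator (100%).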

Row | SMILES | EC50 [1] | EC50 [2]
1 | CC(c1cnc(-c2ccccc2F)[nH]1)n1cc(-c2ccc3[nH]ncc3c2)c2c(N)ncnc21 (stereo not drawn) [Example 66, 7-{1-[2-(2-Fluorophenyl)-1H-imidazol-5-yl]ethyl}-5-(1H-indazol-5-yl)-7H-pyrrolo[2,3-d]pyrimidin-4-amine] | 1320 nM | 573 nM
2 | CC(c1cnc(-c2ccccc2F)[nH]1)n1cc(-c2cnc(N(C)C)nc2)c2c(N)ncnc21 (stereo not drawn) [Example 67, 5-[2-(Dimethylamino)pyrimidin-5-yl]-7-{1-[2-(2-fluorophenyl)-1H-imidazol-5-yl]ethyl}-7H-pyrrolo[2,3-d]pyrimidin-4-amine] | 142 nM | 54.6 nM
3 | Cc1ccc(-c2cn(C(C)c3cnc(-c4ccccc4F)[nH]3)c3ncnc(N)c23)cc1F (stereo not drawn) [Example 68, 5-(3-Fluoro-4-methylphenyl)-7-{1-[2-(2-fluorophenyl)-1H-imidazol-5-yl]ethyl}-7H-pyrrolo[2,3-d]pyrimidin-4-amine] | 26.1 nM | 112 nM
4 | CC(c1cnc(-c2ccccc2F)[nH]1)n1cc(-c2ccc(-n3nccn3)cc2)c2c(N)ncnc21 (stereo not drawn) [Example 70, 7-{1-[2-(2-Fluorophenyl)-1H-imidazol-5-yl]ethyl}-5-[4-(2H-1,2,3-triazol-2-yl)phenyl]-7H-pyrrolo[2,3-d]pyrimidin-4-amine] | 30.6 nM | 110 nM
5 | COc1cc(C#N)cc(-c2cn(Cc3cn(-c4ccccc4F)nn3)c3ncnc(N)c23)c1 [Example 72, 3-(4-Amino-7-{[1-(2-fluorophenyl)-1H-1,2,3-triazol-4-yl]methyl}-7H-pyrrolo[2,3-d]pyrimidin-5-yl)-5-methoxybenzonitrile] | 57 nM | 186 nM
6 | Nc1ncnc2c1c(-c1ccc3c(c1)CCO3)cn2Cc1cn(-c2ccccc2F)nn1 [Example 74, 5-(2,3-Dihydro-1-benzofuran-5-yl)-7-{[1-(2-fluorophenyl)-1H-1,2,3-triazol-4-yl]methyl}-7H-pyrrolo[2,3-d]pyrimidin-4-amine] | 59 nM | 328 nM
7 | COc1cc(C#N)ccc1-c1cn(Cc2cn(-c3ccccc3F)nn2)c2ncnc(N)c12 [Example 79, 4-(4-Amino-7-{[1-(2-fluorophenyl)-1H-1,2,3-triazol-4-yl]methyl}-7H-pyrrolo[2,3-d]pyrimidin-5-yl)-3-methoxybenzonitrile] | 150 nM | 75.2 nM

Other lines, results leading:

Row | EC50 [1] | EC50 [2] | SMILES
8 | 38 nM | 99.6 nM | CCOc1ccc(-c2cn(Cc3cn(-c4ccccc4F)nn3)c3ncnc(N)c23)cc1F [Example 75, 5-(4-Ethoxy-3-fluorophenyl)-7-{[1-(2-fluorophenyl)-1H-1,2,3-triazol-4-yl]methyl}-7H-pyrrolo[2,3-d]pyrimidin-4-amine]
9 | 17.4 nM | 62.5 nM | Nc1ncnc2c1c(-c1ccc(OC3CC3)cc1)cn2Cc1cn(-c2ccccc2F)nn1 [Example 77, 5-[4-(Cyclopropyloxy)phenyl]-7-{[1-(2-fluorophenyl)-1H-1,2,3-triazol-4-yl]methyl}-7H-pyrrolo[2,3-d]pyrimidin-4-amine]
10 | 338 nM | 379 nM | Nc1ncnc2c1c(-c1ccc3[nH]ccc3c1)cn2Cc1cn(-c2ccccc2F)nn1 [Example 81, 7-{[1-(2-Fluorophenyl)-1H-1,2,3-triazol-4-yl]methyl}-5-(1H-indol-5-yl)-7H-pyrrolo[2,3-d]pyrimidin-4-amine]
11 | 39.8 nM | 71.9 nM | Nc1ncnc2c1c(-c1ccc(OC(F)F)cc1)cn2Cc1cn(-c2ccccc2F)nn1 [Example 83, 5-[4-(Difluoromethoxy)phenyl]-7-{[1-(2-fluorophenyl)-1H-1,2,3-triazol-4-yl]methyl}-7H-pyrrolo[2,3-d]pyrimidin-4-amine]
12 | 56.9 nM | 73.4 nM | COc1ccc(-c2cn(Cc3cn(-c4ccccc4F)nn3)c3ncnc(N)c23)cc1 [Example 85, 7-{[1-(2-Fluorophenyl)-1H-1,2,3-triazol-4-yl]methyl}-5-(4-methoxyphenyl)-7H-pyrrolo[2,3-d]pyrimidin-4-amine]
